Literature values in US10045962B2 (priority 2014, dated 2018).

Tests used:
reuptake of dopamine = details: pre-clinical tests; cited from earlier work
monoamine oxidase = details: cited from earlier work
cholinergic receptors = details: in vitro tests; cited from earlier work
dopaminergic receptors = details: in vitro tests; cited from earlier work
[1] = tested on: reuptake of norepinephrine; details: pre-clinical tests; cited from earlier work
histaminergic receptors = details: in vitro tests; cited from earlier work
reuptake of serotonin = details: pre-clinical tests; cited from earlier work
adrenergic receptors = details: in vitro tests; cited from earlier work

CNCC[C@H](Oc1cccc2ccccc12)c1cccs1 [duloxetine]
block of reuptake of dopamine (reuptake of dopamine): merely slightly block
inhibition of monoamine oxidase (monoamine oxidase): does not inhibit
affinity to cholinergic receptors (cholinergic receptors): no significant affinity
affinity to dopaminergic receptors (dopaminergic receptors): no significant affinity
block of reuptake of norepinephrine [1]: effectively block
affinity to histaminergic receptors (histaminergic receptors): no significant affinity
block of reuptake of serotonin (reuptake of serotonin): effectively block
affinity to adrenergic receptors (adrenergic receptors): no significant affinity
